Molecules are shown by their SMILES.

Broadly, the melting point is the temperature, or range, at which the solid turns liquid. In turn, `COc1ccc(N2CCOCC2)c2sc(C(=O)NCC(=O)c3ccsc3)nc12` registered a melting point of 170 °C.

Turning to `CC(=O)Nc1nc(CCc2ccc(CBr)cc2)cs1`, the melting point is 148 to 150 °C.

Turning to `CCCC(Nc1ccc(OCc2ccccc2)cc1)C(=O)OCC` (stereo unspecified), the melting point stood at 68 °C.

As to `CC(C)(C)C(=O)c1c[nH]c2ncc(-n3ccc4ccccc43)nc12`, the melting point fell in the range of 205 to 207 °C.

For the compound `COc1nc(C)nc(NC(=O)NS(=O)(=O)c2cccnc2OC2CCCC2)n1`, the melting point fell in the range of 170 to 172 °C.

`CNC(=O)NC(=O)C(CC1CCCC1)c1ccc(S(C)(=O)=O)c(C#N)c1` (stereo unspecified) returned a melting point of 237 to 239 °C.

Regarding `N#Cc1cc(C(F)(F)F)cnc1O`, the melting point is 170 to 175 °C.

For `CCOC(=O)C=Cc1cccc(C(=O)c2ccc(OC)cc2)c1`, the melting point lay in the range of 71 to 71.5 °C.

For `COC(=O)CN=C(Cc1ccccc1)N1CC2C(=O)CCC(c3ccccc3)(c3ccccc3)C2C1` (stereo unspecified), the melting point was determined as 147 °C.

`CCc1ccc2[nH]c(=O)[nH]c(=O)c2c1`: the melting point fell in the range of 271 to 274 °C.

In turn, `COC(=O)c1sccc1OCC(O)CN1CCC(O)(c2ccccc2)CC1` (stereo unspecified) gave a melting point of 150 to 152 °C.

`O=C(O)CCNC(=O)C1=C(C(=O)Nc2ccc(Cl)cc2F)CCCC1` had a melting point of 158 to 159 °C.

`CC(=O)Nc1ccc(N2CCN(c3ccc(O)cc3)CC2)cc1` returned a melting point of 256 °C.

`Nc1nnc2c3c(c(N4CCOCC4)nn12)CCCC3` displayed a melting point of 260 to 262 °C.

In the case of `Cn1ncc2c1-c1c(S(C)(=O)=O)sc(S(N)(=O)=O)c1CC2`, the melting point fell in the range of 228 to 229 °C.

As to `NC(=O)N1CCSC1c1ccccc1OCCN1CCN(c2cccc(F)c2)CC1` (stereo unspecified), the melting point was in the range of 142 to 143 °C.

In turn, `N#Cc1ccc(C(N2CCN(c3ncccn3)CC2)N2CCCC2=O)cc1` (stereo unspecified) yielded a melting point of 185 to 188 °C.

`COC(=O)c1cccc(CNC(=O)C2CC2)c1C(=O)OC` gave a melting point of 240 to 242 °C.

As to `COc1ccc(O)c(C(C)(O)c2ccccc2)c1` (stereo unspecified), the melting point amounted to 114 °C.

`O=[N+]([O-])c1cc(CS(=O)(=O)CCO)ccc1CS(=O)(=O)CCO`: the melting point was in the range of 125 to 126 °C.

`c1ccc(-c2nnc3cc(N4CCOCC4)c(OCc4ccccn4)nn23)cc1` returned a melting point of 214 °C.

Consider `CCCCCCCCCCCCCCCCC(CO)C(=O)O` (stereo unspecified), for which the melting point lay in the range of 62 to 67 °C.

Turning to `Cc1nnc(-c2cc(O)c(O)c([N+](=O)[O-])c2)o1`, the melting point is 245 to 246 °C.

`CCCCCc1c(-c2ccc3cc(O)ccc3c2)n(Cc2ccccc2)c2ccccc12` returned a melting point of 96 to 100 °C.

For the compound `N#Cc1ccc(OCC(=O)O)cc1F`, the melting point was in the range of 150 to 152 °C.

For `CC(CCCc1cccnc1)NC(=O)C(O)c1ccccc1` (stereo unspecified), the melting point was 144 to 146 °C.

Compound `COC(=O)c1cnc(Cl)o1` showed a melting point of 35 to 50 °C.

`CCOC(=O)[C@]1(O)C=C[C@@H](NC(C)=O)[C@@H]2OC(C)(C)O[C@@H]21` registered a melting point of 97 to 99 °C.

`O=c1oc2cc(N3CCN(CCF)CC3)ccc2cc1-c1nc2ccccc2s1`: the melting point was determined as 246 °C.

`CCC(C)C(C)C(=O)Nc1ccc2c(C)cn3c(=O)c(C(=O)OCCNC(=O)c4cccnc4)cnc3c2c1` (stereo unspecified) displayed a melting point of 204 to 210 °C.

Regarding `COc1cc(Nc2nc3c(s2)CCCC3c2ccccc2)ccc1-c1nc(C)no1` (stereo unspecified), the melting point is 228 to 231 °C.

For the compound `Nc1ccc(OCC2CCN(c3ccncc3)CC2)cc1`, the melting point fell in the range of 207 to 209 °C.

Take `Cc1c(S(C)=O)c(C=NO)nn1-c1c(Cl)cc(C(F)(F)F)cc1Cl` (stereo unspecified): the melting point was in the range of 210 to 214 °C.

With `CCOC(=O)c1cccc(-n2c(C)nc3cnccc32)c1`, the melting point was 120 to 121 °C.

`CCOCc1nc2c(N)nc3c(c2n1NCCCNC(=O)C(C)C)CCCC3`: the melting point is 163 to 165 °C.

`c1cc2sc(C3OCCO3)cc2s1` gave a melting point of 88 to 90 °C.

`O=C(c1oc2ccc(N3CCN(Cc4ccccc4)CC3)cc2c1Br)N(Cc1ccccc1)Cc1ccccc1` had a melting point of 196 to 198 °C.

As to `CNc1c2c(nc3ccccc13)CCCC2O` (stereo unspecified), the melting point is 160 to 161 °C.

Compound `COc1ccc(NC(=S)Nc2cscc2C)c(N)c1` registered a melting point of 143 to 146 °C.

Compound `N#Cc1cccc(C2=Nc3ccc(C4CC4)cc3NC(=O)C2)c1` had a melting point of 204 to 209 °C.

For the compound `Cn1c(Nc2c(Cl)cccc2Cl)nc2cc(C(=O)NC3CCC(C)(C)CC3)ccc21`, the melting point lay in the range of 189 to 190 °C.

The compound `CCOC(=O)/C=C/[C@H]1O[C@@H](n2cc(CC)c(=O)[nH]c2=O)C[C@@H]1OC(C)=O` came in with a melting point of 132 to 133 °C.

With `COc1ccc2c(C)c(F)ccc2c1C(F)(F)F`, the melting point lay in the range of 97 to 99 °C.

Regarding `NC(=O)N/N=C(/C(=O)O)c1ccc(OCCOc2ccc3ccccc3c2)cc1`, the melting point is 204 °C.

As for `OC(CNc1cc(Cl)c(Cl)cc1Cl)Cn1ccnc1` (stereo unspecified), the melting point was in the range of 156 to 158 °C.

`CSc1ccc2ccc(N3C(=O)c4ccccc4C3O)nc2n1` (stereo unspecified) returned a melting point of 210 °C.

For the compound `COC(=O)C1CC(c2ccncc2)CCC1=O` (stereo unspecified), the melting point lay within 82 to 83 °C.

Compound `O=CC1c2cccc(Cl)c2C(C=O)c2cccc(Cl)c21` (stereo unspecified) had a melting point of 160 to 172 °C.

For `O=C(NC1CC1)c1cc2[nH]cnc2c(Cl)c1NC(=O)c1cc(C(F)(F)F)nn1-c1ncccc1Cl`, the melting point was 198 to 201 °C.

In the case of `CC1=C(/C=C/C(C)=C/C=C\c2ccc(C(=O)O)cc2)C(C)(C)CCC1`, the melting point came to 179 °C.

For `COC(=O)c1ccc(-c2nc(COc3ccc(C=O)cc3OC)c(C)o2)cc1`, the melting point was 185 to 186 °C.

Take `CC(C)(C)c1cc(-c2ccccc2)c(Oc2cccc(C#N)c2C#N)c(-c2ccccc2)c1`: the melting point is 189 to 192 °C.

In the case of `Cc1cc(Sc2sc(-c3ccc(C(F)(F)F)cc3)nc2C)ccc1Cc1nn[nH]n1`, the melting point amounted to 248 °C.

On to `Cc1cc(Cl)nc(C#N)c1`, for which the melting point was 133 °C.

Regarding `O=C(Nc1nc(-c2ccco2)c(C(=O)C2CCSCC2)s1)c1ccncc1`, the melting point lay within 203 to 210 °C.

`O=C1c2ccccc2-c2c1c1ccccc1c(=O)n2CCCCCO` displayed a melting point of 144 to 146 °C.

As for `COc1cc(-n2nc3ccc(Cl)cn3c2=O)c(F)cc1N`, the melting point fell in the range of 138 to 140 °C.

Turning to `Cc1ccc(C(=O)Cc2ccccc2)cc1`, the melting point was 107 to 111 °C.

For `Cc1ccnc(-n2sc3ccccc3c2=O)c1`, the melting point was 195 to 196 °C.

With `Cc1cncc2c1C(=N)N(Cc1ccccc1)S2(=O)=O`, the melting point fell in the range of 37 to 39 °C.

For the compound `N#Cc1ccc(Nc2cccc(I)c2)c([N+](=O)[O-])c1`, the melting point lay within 211 to 212 °C.

As for `O=C(O)C(=O)c1ccc(O)c(Cl)c1`, the melting point fell in the range of 116 to 117 °C.

In turn, `CC(C)(C)C1CCN(CCCC(=O)c2ccc3c(c2)-c2ccc(C(=O)CCCN4CCC(C(C)(C)C)CC4)c4cccc-3c24)CC1` displayed a melting point of 150 to 152 °C.

With `CN(C)Cc1ccnc(OCCCNc2c(N)c(=O)c2=O)c1`, the melting point fell in the range of 212 to 214 °C.

Turning to `Cn1c(=O)c2ccccc2n(CCCCCl)c1=O`, the melting point fell in the range of 99 to 100 °C.

Compound `C#CCCN1C(=O)c2cccc3cccc(c23)C1=O` gave a melting point of 191 to 193 °C.

`N#Cc1nnc2n1-c1ccc(Cl)cc1C(c1ccccc1)=NC2`: the melting point was 191 to 192 °C.

As to `O=C1Nc2cccc(Cl)c2C12COc1cc3c(cc12)OCO3` (stereo unspecified), the melting point was in the range of 175 to 185 °C.

Compound `CSC12SCC(COC(C)=O)(OS(C)(=O)=O)C(C(=O)OCc3ccc([N+](=O)[O-])cc3)N1C(=O)C2N=[N+]=[N-]` (stereo unspecified) showed a melting point of 147 °C.

Consider `CCOC(=O)Cc1cnn(C)c1O`, for which the melting point was in the range of 104 to 105 °C.

`C=C(C)CNc1cc(Cl)nnc1Cl` came in with a melting point of 172 to 175 °C.

`Cc1cc(S)n2nc(CN=[N+]=[N-])nc2n1` returned a melting point of 214 to 215 °C.

Regarding `CC(C)(C)OC(=O)NC(Cc1ccccc1)C(=O)Nc1ccc2[nH]cc(CC#N)c2c1` (stereo unspecified), the melting point was in the range of 146 to 149 °C.

`CCCCNC(=O)CN1C(=O)C(NC(=O)OCc2ccccc2)N=C(c2ccccc2)c2ccccc21` (stereo unspecified) returned a melting point of 127 to 129 °C.

The compound `COc1ccc(CN2C(=O)[C@H](N3C(=O)c4ccccc4C3=O)[C@@H]2C(=O)OCc2ccccc2)c(OC)c1` (relative stereo) returned a melting point of 198 to 200 °C.

`Cc1cc(Cl)cc(COc2cccc(OCc3ccc4ccccc4n3)c2)c1OCc1nnn[nH]1`: the melting point is 181 to 184 °C.

The compound `CON(Cc1nc2c(N)nc(C)c(C)c2n1CC(C)C)C(=O)C1CC1` gave a melting point of 135 to 137 °C.

`Nc1cc2c(cc1[N+](=O)[O-])CCCCC2` gave a melting point of 137 to 139 °C.

Consider `CSc1ccc(-c2nn(Cc3cccnc3)c(=O)cc2-c2ccc(Cl)cc2)cc1`, for which the melting point was 148 °C.

Compound `CCCCCCCCCCOc1c(Br)sc(-c2nc3ccccc3s2)c1OCCCCCCCCCC` showed a melting point of 42 to 43 °C.

The compound `CCCNC(=O)COC1c2ccccc2C(=O)N1c1ccc2ccc(Cl)nc2n1` (stereo unspecified) came in with a melting point of 167 °C.

Take `N#Cc1cc(C(=O)Nc2ccc(Cl)cn2)nc(C(F)(F)F)c1`: the melting point was determined as 208 °C.

On to `C=CCOc1ccc(-c2ccc(Cl)nn2)c(OCC(O)CNC(C)(C)C)c1` (stereo unspecified), for which the melting point was 93 to 94 °C.

Take `Cc1nc(OCCCCn2cncn2)c([N+](=O)[O-])c(N2CCc3ccccc3CC2)n1`: the melting point is 88 to 91 °C.

`CN1CCC2(CC1)NC(c1ccccc1)c1cc(Cl)ccc1N(C)C2=O` (stereo unspecified) gave a melting point of 196 °C.

The compound `O=S(=O)(c1ccc(Cl)cc1)C(Cc1ccncc1)c1cc(F)ccc1F` (stereo unspecified) came in with a melting point of 129 °C.

With `COc1cccc2c1C13CCN(C)C(C2)C1(O)CCC(=O)C3` (stereo unspecified), the melting point is 191 to 193 °C.

As to `COc1c(N2CCNCC2)c(F)cc2c(=O)c(C(=O)O)c3n(c12)C(C)S3` (stereo unspecified), the melting point was 278 to 280 °C.

On to `Cc1ccc2c(c1)[C@H](Nc1nc(NC=O)nc(C(F)F)n1)[C@@H](C)C2`, for which the melting point was determined as 66 °C.

Regarding `O=C(NC1CCCCC1)NS(=O)(=O)c1cnccc1NC1CCCCCC1`, the melting point fell in the range of 165 to 169 °C.

`CC(C)(C)C(=O)Nc1ccc2cc3c(cc2c1)CCCC3` returned a melting point of 202 to 204 °C.

The values are drawn from a melting point compilation (Tetko et al.; mined from patent text by program, amines drawn as free bases though some values may be those of a salt).
